Data on 88 compounds can be found in PubChem BioAssay AID1645864 (Buhrlage Lab, Dana-Farber Cancer Institute and Novartis …, 2021).

Active and inactive are the calls of the source.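 How the source made its calls: active means maximal inhibition of USP17 at or above 30% in the confirmation dose-response, a value not among the printed readouts; inactive means the rest.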

In the experiment the target is Ubiquitin carboxyl-terminal hydrolase 17-like protein 5 (Homo sapiens) (UniProt A8MUK1). In words: ubiquitin-specific protease 17 DUB inhibitors, concentration-effect assay, cell-free, verification of initial screening actives (AID 1645864). The conditions noted are these: purified USP17, ubiquitin-rhodamine cleavage fluorescence, 3 h.
Chain of Ubiquitin carboxyl-terminal hydrolase 17-like protein 5 (Homo sapiens) (A8MUK1 whole entry, looked up): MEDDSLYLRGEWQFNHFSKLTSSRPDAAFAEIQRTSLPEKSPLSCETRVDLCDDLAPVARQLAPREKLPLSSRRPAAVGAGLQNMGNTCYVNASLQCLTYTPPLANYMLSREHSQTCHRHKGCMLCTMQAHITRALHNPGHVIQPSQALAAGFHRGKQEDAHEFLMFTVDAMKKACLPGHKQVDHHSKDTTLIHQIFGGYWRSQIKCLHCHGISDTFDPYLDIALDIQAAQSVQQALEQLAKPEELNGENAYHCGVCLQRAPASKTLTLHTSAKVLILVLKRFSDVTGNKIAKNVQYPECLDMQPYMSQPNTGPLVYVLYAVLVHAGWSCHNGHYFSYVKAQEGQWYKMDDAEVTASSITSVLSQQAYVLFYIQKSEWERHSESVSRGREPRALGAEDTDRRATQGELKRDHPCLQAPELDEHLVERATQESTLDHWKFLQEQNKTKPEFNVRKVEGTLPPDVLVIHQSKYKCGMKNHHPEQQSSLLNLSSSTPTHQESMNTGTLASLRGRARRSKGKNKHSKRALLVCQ
As to `CCCc1cc(=O)n2[nH]c(COc3ccccc3)c(-c3ccccc3)c2n1`, the IC50 was 41.7 µM.

`Cc1nnc(-c2nnc(NCc3ccc(Cl)cc3)c3ccccc23)o1`: the IC50 is > 50 µM (inactive).

Take `N#C/C(=C\c1ccc(OCc2cccc(C(=O)O)c2)cc1)c1ccc(F)cc1`: the IC50 is 29.5 µM.

`O=C(COc1ncnc2ccccc12)Nc1ccc2c(c1)OC1(CCCC1)O2`: the concentration for half-maximal inhibition (IC50) was 35.2 µM.

`O=C(O)c1ccccc1C(=O)Nc1ccc(SC(C(=O)Nc2ccccc2)c2ccccc2)cc1` (stereo not drawn): the IC50 was > 50 µM (inactive).

Consider `CCOc1ccc(NC(=O)COc2cccc3c2CCN(CC)C3=O)cc1`, for which the IC50 was > 50 µM (inactive).

Take `Cc1cc(C(=O)Nc2ccc3nc(N4CCN(c5ncccn5)CC4)cc(C)c3c2)ccc1[N+](=O)[O-]`: the IC50 was 1.68 µM.

Regarding `CO[C@H]1CC[C@H](O)c2c1oc1c3c4c(c(O)c1c2=O)-c1c(cc2c(Cl)c(C)n(N)c(=O)c2c1O)C[C@@H]4OCO3`, the IC50 is 14 µM.

With `O=C(Cn1c(=O)c2sccc2n(Cc2ccc([N+](=O)[O-])cc2)c1=O)NCCc1ccccc1`, the IC50 is 26.8 µM.

Regarding `O=C(COc1ccc2c(-c3ccccc3)cc(=O)oc2c1)Nc1cccnc1`, the IC50 was 1.7 µM.

With `COc1cccc(S(=O)(=O)N2CCn3nc(C(C)(C)C)cc3C2)c1`, the IC50 is 38.5 µM.

Consider `CC(=O)Nc1cc2cc(-n3cccc3)ccc2oc1=O`, for which the IC50 was 3.83 µM.

In the case of `O=C(Nc1ccc(Br)cn1)c1nc2ccccc2nc1N1CCCCC1`, the IC50 is > 50 µM (inactive).

On to `COc1ccc(CNC(=O)CSc2nc3nc(C)ccc3o2)cc1`, for which the IC50 was 25 µM.

Turning to `COc1cccc2sc(N3CCN(c4nc5ccccc5s4)CC3)nc12`, the IC50 is 38 µM.

In the case of `CC(C)CC[C@H]1O[C@@H](CC(=O)O)Cc2cc3c(c(O)c21)C(=O)c1sc(=O)n(C)c1C3=O`, the IC50 is 0.194 µM.

For `CC(C)c1ccc(C(C(=O)NC2CCCCC2)N(C(=O)c2cnccn2)c2cccc(F)c2)cc1` (stereo not drawn), the IC50 is 27.2 µM.

`Cc1ccc(C2c3cccn3CCN2C(=O)Nc2ccccc2)cc1` (stereo not drawn): the IC50 is > 50 µM (inactive).

Take `COc1ccc(CNc2nn3c(-c4cncc(OC)c4)cnc3s2)cc1`: the IC50 was 4.02 µM.

On to `N#Cc1ccc(NC(=O)Nc2cccn(Cc3c(F)cccc3Cl)c2=O)cc1`, for which the IC50 was 3.86 µM.

Take `O=C(NC1(O)C(=O)c2ccccc2C1=O)c1ccc(-c2csnn2)cc1`: the IC50 is 19.5 µM.

As to `O=C(NCc1ccc2c(c1)OCO2)c1[nH]nc2c1COc1ccccc1-2`, the IC50 was 1.84 µM.

Consider `COc1ccc(-c2nc(C)c(C(=O)NCc3ccc(S(N)(=O)=O)cc3)s2)cc1`, for which the IC50 was > 50 µM (inactive).

As for `Cn1c(=O)/c(=C/c2ccccc2)[nH]c(=O)/c1=C/c1ccccc1`, the IC50 was 5.8 µM.

As to `O=C(/C=C/c1ccccc1)N1CCN(C2=NS(=O)(=O)c3ccccc32)CC1`, the IC50 is > 50 µM (inactive).

`COc1ccc(-c2cc(-c3ccc(F)cc3)[nH]c(=O)c2C#N)cc1`: the IC50 was 30.3 µM.

For `CCCc1nc2sc3c(NCc4ccco4)ncnc3c2c2c1CCC2`, the IC50 is > 50 µM (inactive).

As for `Cc1nc(-c2noc(-c3ccncc3)n2)cn1CC(=O)N1CCN(c2ccc(F)cc2)CC1`, the IC50 was > 50 µM (inactive).

Regarding `O=C(Nc1ccc2c(c1)OCCO2)Nc1nnc(CC(=O)N2CCCCC2)s1`, the IC50 was > 50 µM (inactive).

On to `CC(=O)c1sc(NC(=O)c2ccccc2-c2ccc(C(F)(F)F)cc2)nc1C`, for which the half-inhibitory concentration (IC50) was 17 µM.

For `COc1ccc(-c2nnc(SCc3ccccc3C#N)o2)c(OC)c1`, the IC50 is > 50 µM (inactive).

Regarding `O=C(Nc1cccc(C(F)(F)F)c1)N1CCCn2c(nc3ccccc32)C1`, the IC50 was 25 µM.

Regarding `O=C(O)c1ccccc1C(=O)Nc1ccc(SC(C(=O)Nc2cccc(Cl)c2)c2ccccc2)cc1` (stereo not drawn), the IC50 is 23.4 µM.

In the case of `COc1ccc(C(C)=O)cc1CC(=O)Nc1nc2ccccc2[nH]1`, the IC50 was > 50 µM (inactive).

As to `CC(CCc1ccccc1)NC(=O)Cn1c(=O)c2cccn2c2ccccc21` (stereo not drawn), the IC50 is 11.6 µM.

As to `CC(C)NC(=O)Cn1ccn2nc(-c3ccc(Cl)cc3)cc2c1=O`, the IC50 was 3.85 µM.

On to `O=C(Nc1ccc2c(c1)OCCO2)C1CCN(C(=O)c2ccccc2)CC1`, for which the IC50 is > 50 µM (inactive).

`CCNc1oc(-c2ccc(S(=O)(=O)N3CCCCC3)cc2)nc1C#N`: the concentration for half-maximal inhibition (IC50) is 24.2 µM.

`COc1cccc(/C=C/C(=O)Nc2ccc(N3CCOCC3)cc2)c1OC`: the IC50 is > 50 µM (inactive).

On to `O=C(CNC(=O)c1cccc(F)c1)Nc1nc2ccccc2[nH]1`, for which the IC50 was 19.2 µM.

As to `COc1ccc(-c2ccnc(-c3ccc(OCc4cccc(F)c4)cc3)n2)cc1`, the IC50 was 37.2 µM.

Regarding `CN(C)c1cc(-n2cnc(C(=O)NCc3ccccc3Cl)c2)ncn1`, the IC50 was 41.3 µM.

With `CNC(=O)c1cc2nc(N(C)C)n(-c3ccc(F)cc3)c2s1`, the IC50 is > 50 µM (inactive).

For `O=C(COc1nsnc1N1CCOCC1)Nc1ccc(F)c(F)c1`, the IC50 is > 50 µM (inactive).

Take `COc1cc(C(=O)NC(Cc2ccccc2)c2nc3ccccc3[nH]2)cc(OC)c1OC` (stereo not drawn): the IC50 was 2.62 µM.

For the compound `CC(=O)N1CCc2cc(S(=O)(=O)NC(Cc3ccccc3)C(=O)Nc3cccc(Cl)c3C)ccc21` (stereo not drawn), the IC50 was 12.9 µM.

For `COc1cccc(C(=O)Nc2ccc(-n3cnnn3)cc2)c1`, the IC50 is > 50 µM (inactive).

`Cc1ccc(C(=O)c2cn(CC(=O)Nc3ccccc3)c3ccc(C)cc3c2=O)cc1`: the IC50 was 10.9 µM.

Regarding `C=C1CCC2[C@](C)(CCC[C@]2(C)C(=O)OC)[C@H]1CCc1ccoc1CNC(C)C` (stereo partly drawn), the IC50 was > 50 µM (inactive).

`CC(CCc1ccccc1)NC(=O)C(=O)c1cn(CC(=O)N2CCOCC2)c2ccccc12` (stereo not drawn): the IC50 is > 50 µM (inactive).

With `O=C(COC(=O)c1cc2c(s1)CCC2)c1ccc2[nH]c(=O)[nH]c2c1`, the IC50 is 15.7 µM.

On to `COCCNC(=O)c1cc(-c2cn(-c3ccccn3)c(C)n2)n2ccccc12`, for which the IC50 is > 50 µM (inactive).

For the compound `CC1(O)CC(=O)c2c(cc3cc(O)cc(O)c3c2O)C1` (stereo not drawn), the concentration for half-maximal inhibition (IC50) is 0.115 µM.

Turning to `Cn1ccc2c(cc(C(=O)NCCC3=CCCCC3)n2C)c1=O`, the IC50 is > 50 µM (inactive).

With `COc1ccc2cc1Oc1cc(ccc1OC)C(O)C13SSC4(C(=O)N1C)C(O)C1=COC=CC(OC2=O)C1N4C3=O` (stereo not drawn), the IC50 was > 50 µM (inactive).

Turning to `Nc1ncnc2c1ncn2[C@@H]1O[C@H](CO)C[C@@H]1O`, the 50% inhibitory concentration (IC50) is 34.3 µM.

As to `Cc1ccc(Nc2nc(O)c(CC(=O)Nc3ccccc3C)s2)cc1C`, the IC50 is 18 µM.

On to `CSc1ccc(CNCc2c(C(=O)O)n(Cc3ccccc3)c3cc(C)ccc23)cc1`, for which the IC50 is > 50 µM (inactive).

Regarding `O=C(Nc1cccc(Br)c1)c1cc(-c2cccnc2)n[nH]1`, the IC50 was 4.2 µM.

For `CC1CCc2c(sc3nc(CC#N)[nH]c(=O)c23)C1` (stereo not drawn), the IC50 is > 50 µM (inactive).

As for `O=C(Nc1ccc2sccc2c1)c1ccc(F)cc1`, the IC50 was 40.6 µM.

With `CSc1cccc(NC(=O)COc2cccc3ccccc23)c1`, the IC50 is 2.04 µM.

For the compound `Cc1sc2nc(CN3CCCC3)nc(NCCc3ccc(Cl)cc3)c2c1C`, the IC50 is > 50 µM (inactive).

Take `CCC1=C(c2ccc(C)cc2)S(=O)(=O)NC1=NCC(=O)NC(C)c1ccccc1` (stereo not drawn): the IC50 is 25.2 µM.

Take `COc1ccc(C)cc1NC(=O)C1CC(=O)Nc2nc3ccccc3n21` (stereo not drawn): the IC50 is 33.9 µM.

Regarding `CS(=O)(=O)N1CCCc2cc(C(=O)Nc3ccc4c(c3)OCO4)ccc21`, the IC50 is > 50 µM (inactive).

On to `COc1ccc(CCn2cnc3c4ccccc4n(C)c3c2=O)cc1OC`, for which the IC50 is > 50 µM (inactive).

For `CCC1=C(c2ccc(C)cc2)S(=O)(=O)NC1=NCC(=O)NCc1ccccc1F`, the IC50 was 35.3 µM.

`Cc1cc(C(F)(F)F)n2nc(C3CCN(C(=O)c4cnn(C)c4C)C3)cc2n1` (stereo not drawn): the IC50 was 30.2 µM.

On to `O=C(Cn1c(=O)nc(-c2ccccc2)c2ccccc21)NCc1ccc2c(c1)OCO2`, for which the IC50 was 27.8 µM.

`Cc1nc(N2CCCC2)ncc1-c1cc(=O)[nH]c(N2CCc3ccccc3C2)n1`: the IC50 was 21.6 µM.

Take `CC(OC(=O)c1c2c(nc3ccccc13)CCCCC2)C(=O)Nc1ccc2ccccc2c1` (stereo not drawn): the concentration for half-maximal inhibition (IC50) is 3.81 µM.

As for `O=c1cc(CNc2ccc(Br)cc2)nc2nc(-c3ccccc3)[nH]n12`, the IC50 was > 50 µM (inactive).

Turning to `CCOc1ccccc1NC(=O)Cn1ccn2nc(-c3ccc(OC)cc3)cc2c1=O`, the IC50 is 6.49 µM.

As for `COc1ccccc1OCC(=O)Nc1ccc2c(c1)CCC(=O)N2Cc1ccccc1`, the IC50 is > 50 µM (inactive).

On to `CCCCn1c(=O)c(CCC(=O)OCC(=O)Nc2ccc3c(c2)OCCO3)nc2ccccc21`, for which the IC50 is > 5 µM (inactive).

`O=C(CNc1nc(Nc2ccccc2F)nc(Nc2ccccc2F)n1)Nc1ccccc1`: the IC50 was 35.5 µM.

In the case of `CC(C)NS(=O)(=O)c1cccc2c(NC(=O)C(Cc3ccccc3)NC(=O)c3ccccc3)cccc12` (stereo not drawn), the IC50 is > 50 µM (inactive).

On to `CCN(CC)c1cc(C)c2cc(NC(=O)c3ccncc3)ccc2n1`, for which the IC50 is > 50 µM (inactive).

In the case of `CCOc1ccc(NC(=O)Cn2c(=O)n(CC(=O)NCc3ccc(C)cc3)c(=O)c3sccc32)cc1`, the IC50 is 3.97 µM.

Consider `CC1(C)CC(n2[nH]c(=O)c3c2NC(=O)CSC3c2ccc(OCc3ccccc3)cc2)CCO1` (stereo not drawn), for which the IC50 is 21 µM.

In the case of `O=C(Nc1ccc(N2CCOCC2)cc1)c1cc(=O)[nH]c2ccccc12`, the IC50 is 31 µM.

As to `Cc1ccccc1NC(=O)C(C)n1c(=O)cc(-c2ccccc2)c2c(C)nn(C)c21` (stereo not drawn), the IC50 is 2.67 µM.

Take `COc1ccc(CNC(=O)CN2C(=O)CC(c3ccccc3)=Nc3ccccc32)cc1`: the IC50 was 4.42 µM.

For `O=C1c2c(O)cccc2C2(Oc3cccc4cccc(c34)O2)C2OC12` (stereo not drawn), the IC50 is 10.1 µM.

`CCCc1nc2sc3c(NCCN4CCOCC4)ncnc3c2c2c1CCC2`: the IC50 was > 50 µM (inactive).

For `O=C1/C(=C/c2cn(-c3ccccc3)nc2-c2ccc3c(c2)OCCO3)Cc2ccccc21`, the IC50 is > 50 µM (inactive).

`COc1ccc(NC(=O)C2C3C=CC4(O3)C2C(=O)N(CCc2ccccc2)C4C(=O)NC2CCCCC2)cc1` (stereo not drawn): the IC50 was 26.2 µM.

For orientation: IC50 means the concentration at which inhibition is half-maximal.
